Measurements taken from the supplement of paper PMC10307832.

Legend:
Experiment in all cases: relative viability (nuclei count vs DMSO), 5 days (fraction); higher = more cells survive
[1] = system: COR-L 105
How it was run: (§1)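 The day after seeding in 1536-well plates, lung cancer cell lines were treated by pin tool with a single drug, or with a fixed anchor-drug dose together with five library-drug doses (not always all listed) in √10 steps. After 5 days, a combined fix-and-stain solution (final 0.05% Triton X-100, 1% formaldehyde, 1 ug/ml Hoechst) was added. Nuclei counted on 4× images gave relative viability as treated counts over vehicle counts, reported as the median of duplicate plates.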

[2] = system: LU99A
How it was run: as §1

[3] = system: LOU-NH91
How it was run: as §1

[4] = system: NCI-H358
How it was run: as §1

[5] = system: RERF-LC-KJ
How it was run: as §1

[6] = system: BEN
How it was run: as §1

[7] = system: LK-2
How it was run: as §1

[8] = system: NCI-H2087
How it was run: as §1

[9] = system: SK-MES-1
How it was run: as §1

[10] = system: EMC-BAC-2
How it was run: as §1

[11] = system: EKVX
How it was run: as §1

[12] = system: SW 1573
How it was run: as §1

[13] = system: EPLC-272H
How it was run: as §1

[14] = system: ChaGo-K-1
How it was run: as §1

[15] = system: NCI-H1792
How it was run: as §1

[16] = system: HCC-78
How it was run: as §1

[17] = system: NCI-H2126
How it was run: as §1

[18] = system: NCI-H1734
How it was run: as §1

[19] = system: NCI-H1944
How it was run: as §1

[20] = system: LCLC-97TM1
How it was run: as §1

[21] = system: HCC-827
How it was run: as §1

[22] = system: NCI-H727
How it was run: as §1

[23] = system: NCI-H1650
How it was run: as §1

## O=c1[nH]c2ccccc2n1C1CCN(CCCC(c2ccc(F)cc2)c2ccc(F)cc2)CC1 [Pimozide] + Nc1ncn([C@H]2C[C@H](O)[C@@H](CO)O2)c(=O)n1 [Decitabine] (partner 2 µM)
[1]; first compound 0.08 µM
  relative viability: 0.49
[1]; first compound 0.253 µM
  relative viability: 0.702
[1]; first compound 0.8 µM
  relative viability: 0.623
[1]; first compound 2.53 µM
  relative viability: 0.659
[1]; first compound 8 µM
  relative viability: 0.701
[2]; first compound 0.08 µM
  relative viability: 0.979
[2]; first compound 0.8 µM
  relative viability: 0.97
[2]; first compound 2.53 µM
  relative viability: 0.829
[2]; first compound 8 µM
  relative viability: 0.847
[3]; first compound 0.08 µM
  relative viability: 0.64
[3]; first compound 0.253 µM
  relative viability: 0.818
[3]; first compound 0.8 µM
  relative viability: 0.778
[3]; first compound 2.53 µM
  relative viability: 0.829
[3]; first compound 8 µM
  relative viability: 0.866
[4]; first compound 0.08 µM
  relative viability: 0.196
[4]; first compound 0.253 µM
  relative viability: 0.219
[4]; first compound 0.8 µM
  relative viability: 0.315
[4]; first compound 2.53 µM
  relative viability: 0.213
[4]; first compound 8 µM
  relative viability: 0.228
[5]; first compound 0.08 µM
  relative viability: 0.674
[5]; first compound 0.253 µM
  relative viability: 0.562
[5]; first compound 0.8 µM
  relative viability: 0.63
[5]; first compound 2.53 µM
  relative viability: 0.401
[5]; first compound 8 µM
  relative viability: 0.544
[6]; first compound 0.08 µM
  relative viability: 0.805
[6]; first compound 0.253 µM
  relative viability: 0.71
[6]; first compound 0.8 µM
  relative viability: 0.757
[6]; first compound 2.53 µM
  relative viability: 0.62
[6]; first compound 8 µM
  relative viability: 0.767
[7]; first compound 0.08 µM
  relative viability: 0.25
[7]; first compound 0.253 µM
  relative viability: 0.289
[7]; first compound 0.8 µM
  relative viability: 0.28
[7]; first compound 2.53 µM
  relative viability: 0.296
[7]; first compound 8 µM
  relative viability: 0.33
[8]; first compound 0.08 µM
  relative viability: 0.277
[8]; first compound 0.253 µM
  relative viability: 0.328
[8]; first compound 2.53 µM
  relative viability: 0.342
[8]; first compound 8 µM
  relative viability: 0.275
[9]; first compound 0.08 µM
  relative viability: 0.389
[9]; first compound 0.253 µM
  relative viability: 0.39
[9]; first compound 0.8 µM
  relative viability: 0.355
[9]; first compound 2.53 µM
  relative viability: 0.454
[9]; first compound 8 µM
  relative viability: 0.774
[10]; first compound 0.08 µM
  relative viability: 0.956
[10]; first compound 0.253 µM
  relative viability: 0.918
[10]; first compound 0.8 µM
  relative viability: 0.911
[10]; first compound 2.53 µM
  relative viability: 0.953
[10]; first compound 8 µM
  relative viability: 0.983
[11]; first compound 0.253 µM
  relative viability: 0.333
[11]; first compound 0.8 µM
  relative viability: 0.341
[11]; first compound 2.53 µM
  relative viability: 0.349
[11]; first compound 8 µM
  relative viability: 0.364
[12]; first compound 0.08 µM
  relative viability: 0.555
[12]; first compound 0.253 µM
  relative viability: 0.52
[12]; first compound 0.8 µM
  relative viability: 0.499
[12]; first compound 2.53 µM
  relative viability: 0.371
[12]; first compound 8 µM
  relative viability: 0.384
[13]; first compound 0.08 µM
  relative viability: 0.309
[13]; first compound 0.253 µM
  relative viability: 0.362
[13]; first compound 0.8 µM
  relative viability: 0.33
[13]; first compound 2.53 µM
  relative viability: 0.32
[13]; first compound 8 µM
  relative viability: 0.318
[14]; first compound 0.08 µM
  relative viability: 0.515
[14]; first compound 0.253 µM
  relative viability: 0.453
[14]; first compound 0.8 µM
  relative viability: 0.5
[14]; first compound 2.53 µM
  relative viability: 0.546
[14]; first compound 8 µM
  relative viability: 0.546
[15]; first compound 0.08 µM
  relative viability: 0.59
[15]; first compound 0.253 µM
  relative viability: 0.53
[15]; first compound 0.8 µM
  relative viability: 0.33
[15]; first compound 2.53 µM
  relative viability: 0.534
[15]; first compound 8 µM
  relative viability: 0.547
[16]; first compound 0.08 µM
  relative viability: 0.735
[16]; first compound 0.8 µM
  relative viability: 0.671
[16]; first compound 2.53 µM
  relative viability: 0.671
[16]; first compound 8 µM
  relative viability: 0.702
[17]; first compound 0.08 µM
  relative viability: 0.613
[17]; first compound 0.253 µM
  relative viability: 0.576
[17]; first compound 0.8 µM
  relative viability: 0.549
[17]; first compound 2.53 µM
  relative viability: 0.557
[17]; first compound 8 µM
  relative viability: 0.62
[18]; first compound 0.08 µM
  relative viability: 0.51
[18]; first compound 0.253 µM
  relative viability: 0.489
[18]; first compound 0.8 µM
  relative viability: 0.525
[18]; first compound 2.53 µM
  relative viability: 0.431
[18]; first compound 8 µM
  relative viability: 0.509
[19]; first compound 0.08 µM
  relative viability: 0.398
[19]; first compound 2.53 µM
  relative viability: 0.436
[19]; first compound 8 µM
  relative viability: 0.393
[20]; first compound 0.08 µM
  relative viability: 0.229
[20]; first compound 0.253 µM
  relative viability: 0.245
[20]; first compound 0.8 µM
  relative viability: 0.183
[20]; first compound 2.53 µM
  relative viability: 0.221
[20]; first compound 8 µM
  relative viability: 0.228
[21]; first compound 0.253 µM
  relative viability: 0.284
[21]; first compound 0.8 µM
  relative viability: 0.348
[21]; first compound 2.53 µM
  relative viability: 0.334
[21]; first compound 8 µM
  relative viability: 0.32
[22]; first compound 0.08 µM
  relative viability: 0.834
[22]; first compound 0.253 µM
  relative viability: 0.588
[22]; first compound 0.8 µM
  relative viability: 0.933
[22]; first compound 2.53 µM
  relative viability: 0.98
[22]; first compound 8 µM
  relative viability: 0.856
[23]; first compound 0.08 µM
  relative viability: 0.287
[23]; first compound 0.253 µM
  relative viability: 0.485
[23]; first compound 0.8 µM
  relative viability: 0.315
[23]; first compound 2.53 µM
  relative viability: 0.404
[23]; first compound 8 µM
  relative viability: 0.405
